Results from the supplement of paper PMC11579375.

Tests used:
Test in all cases: area under the viability dose-response curve (AUC) (AUC (arbitrary units, max 500 = no viability loss)); higher = less sensitive (higher viability)
Settings in all cases: exposure time: 120 h; concentration range: 0.1 nM - 10 µM, 6 doses
[1] = tested on: 13F2 (fetal-II hepatoblastoma organoid with high liver markers)
Description: (§1)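 Patient-derived hepatoblastoma tumor organoids (about 50 organoids per well, 384-well plates, medium with 5% BME) were treated with the PMC pediatric cancer drug library. Each drug was tested in duplicate at 6 concentrations (0.1 nM to 10 µM, 10-fold steps).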

[2] = tested on: 8F1 (fetal-I hepatoblastoma organoid with intermediate liver markers)
Description: as §1

[3] = tested on: 13E (embryonal-type hepatoblastoma organoid)
Description: as §1

[4] = tested on: 27F1 (fetal-I hepatoblastoma organoid with intermediate liver markers)
Description: as §1

[5] = tested on: 10F2 (fetal-II hepatoblastoma organoid with high liver markers)
Description: as §1

[6] = tested on: 17F1 (fetal-I hepatoblastoma organoid with intermediate liver markers)
Description: as §1

[7] = tested on: 22E (embryonal-type hepatoblastoma organoid)
Description: as §1

[8] = tested on: 17E (embryonal-type hepatoblastoma organoid)
Description: as §1

[9] = tested on: 3E (embryonal-type hepatoblastoma organoid)
Description: as §1

[10] = tested on: 135F2 (fetal-II hepatoblastoma organoid with high liver markers)
Description: as §1

[11] = tested on: 96F1 (fetal-I hepatoblastoma organoid with intermediate liver markers)
Description: as §1

Row | Structure (SMILES) | area under the viability dose-response curve [1] | area under the viability dose-response curve [2] | area under the viability dose-response curve [3] | area under the viability dose-response curve [4] | area under the viability dose-response curve [5] | area under the viability dose-response curve [6] | area under the viability dose-response curve [7] | area under the viability dose-response curve [8] | area under the viability dose-response curve [9] | area under the viability dose-response curve [10] | area under the viability dose-response curve [11]
1 | CN/N=N/c1[nH]cnc1C(N)=O [MTIC] | 443 | > 500 | > 500 | > 500 | 445 | > 500 | > 500 | > 500 | > 500 | > 500 | > 500
2 | O=C(c1ccc(F)c(F)c1Nc1ccc(I)cc1F)N1CC(O)([C@@H]2CCCCN2)C1 [Cobimetinib] | 266 | 455 | 429 | 381 | 220 | 438 | 448 | 362 | 372 | 300 | 430
3 | Cc1cccc(-c2[nH]c(CNc3ccccc3F)nc2-c2ccc3ncnn3c2)n1 [Vactosertib] | > 500 | 491 | 493 | > 500 | 394 | > 500 | 481 | > 500 | 419 | 481 | 496
4 | Cc1ncc(Cl)cc1NCc1ccc(C(=O)N[C@@H](CC2CCCC2)C(=O)NC2CC2)s1 | 468 | > 500 | > 500 | 488 | 491 | > 500 | > 500 | > 500 | 456 | 476 | > 500
5 | COc1cccc2c1C(=O)c1c(O)c3c(c(O)c1C2=O)C[C@@](O)(C(C)=O)C[C@@H]3O[C@H]1C[C@H](N)[C@H](O)[C@H](C)O1 [Daunorubicin] | 253 | 400 | 301 | 305 | 247 | 301 | 317 | 287 | 273 | 283 | 284
6 | CCC(CC)(NC(=O)C(C)C)C(=O)N[C@@H](CCCN=C(N)N)C(=O)NC1(C(=O)NC(c2ccc(F)cc2)c2ccc(F)cc2)CCCC1 [MM102] | 482 | > 500 | > 500 | 493 | 445 | 486 | 464 | > 500 | > 500 | 497 | 485
7 | CNCc1ccc(-c2[nH]c3cc(F)cc4c3c2CCNC4=O)cc1 [Rucaparib] | 458 | 476 | 484 | > 500 | 446 | 489 | 475 | 489 | 490 | 452 | > 500
8 | O=C(c1cc(Cc2n[nH]c(=O)c3ccccc23)ccc1F)N1CCN(C(=O)C2CC2)CC1 [Olaparib] | 491 | > 500 | 496 | 476 | 470 | > 500 | 458 | 494 | 477 | 492 | 490
9 | C=CC(=O)N1C[C@H](Nc2ncnc3[nH]ccc23)CC[C@@H]1C | 460 | 495 | > 500 | > 500 | 426 | 488 | > 500 | > 500 | 463 | 471 | 482
10 | c1cn2cc(-c3ccc4cn[nH]c4c3)nc(Nc3ccc(N4CCOCC4)cc3)c2n1 [Entospletinib] | > 500 | 480 | 486 | 490 | 462 | 480 | 496 | > 500 | 473 | 481 | 480
11 | O=C(NC1CCNCC1)c1n[nH]cc1NC(=O)c1c(Cl)cccc1Cl [AT7519] | 361 | 381 | 348 | 456 | 378 | 381 | 371 | 406 | 332 | 396 | 387
12 | C[C@]12CCCN1CC1=NNC(=O)c3cc(F)cc4[nH]c2c1c34 [Pamiparib] | 443 | 479 | 481 | 487 | 439 | > 500 | 473 | > 500 | 459 | 478 | 494
13 | CC1(C)CCC(c2ccc(Cl)cc2)=C(CN2CCN(c3ccc(C(=O)NS(=O)(=O)c4ccc(N[C@H](CCN5CCOCC5)CSc5ccccc5)c(S(=O)(=O)C(F)(F)F)c4)cc3)CC2)C1 [Navitoclax] | 409 | 321 | 414 | 421 | 335 | 433 | 423 | 423 | 326 | 425 | 423
14 | C[C@H](NC(=O)CCC(F)(F)F)C(=O)N[C@@H]1C(=O)N(CCO)c2ncccc2-c2ccccc21 [Crenigacestat] | 418 | 498 | 482 | 484 | 389 | > 500 | 474 | 482 | 458 | 479 | 480
15 | O=C(/C=C/c1cccc(S(=O)(=O)Nc2ccccc2)c1)NO [Belinostat] | 359 | 434 | 401 | 418 | 365 | 437 | 425 | 367 | 355 | 386 | 409
16 | Cn1nccc1Nc1nccc(-c2ccn([C@H](CO)c3ccc(Cl)c(F)c3)c(=O)c2)n1 [Ravoxertinib] | 354 | > 500 | 470 | > 500 | 331 | > 500 | 468 | 475 | 494 | 380 | 483
17 | C[C@@H](c1ccc2nccn2c1)n1nnc2ncc(-c3cnn(C)c3)nc21 [Savolitinib] | > 500 | > 500 | > 500 | > 500 | 472 | 489 | > 500 | 499 | 489 | 497 | > 500
18 | CCN1CCN(Cc2ccc(Nc3ncc(F)c(-c4cc(F)c5nc(C)n(C(C)C)c5c4)n3)nc2)CC1 [Abemaciclib] | 314 | 448 | 408 | 402 | 314 | 452 | 395 | 284 | 264 | 360 | 411
19 | C#Cc1cccc(Nc2ncnc3cc(OCCOC)c(OCCOC)cc23)c1 [Erlotinib] | 360 | 463 | 488 | 423 | 311 | 448 | 485 | 448 | 476 | 469 | 415
20 | COc1cc2nccc(Oc3ccc(NC(=O)C4(C(=O)Nc5ccc(F)cc5)CC4)cc3)c2cc1OC [Cabozantinib] | 442 | 489 | 478 | > 500 | 488 | > 500 | 445 | 439 | 457 | 491 | 475
21 | CO[C@@H]1[C@H](N(C)C(=O)c2ccccc2)C[C@H]2O[C@]1(C)n1c3ccccc3c3c4c(c5c6ccccc6n2c5c31)C(=O)NC4 [Midostaurin] | 335 | 454 | 427 | > 500 | 372 | 442 | 417 | 364 | 338 | 365 | 431
22 | CO[C@H]1/C=C/C[C@H](C)[C@@H](C)S(=O)(=O)NC(=O)c2ccc3c(c2)N(C[C@@H]2CC[C@H]21)C[C@@]1(CCCc2cc(Cl)ccc21)CO3 [AMG-176] | 344 | 475 | 421 | 450 | 274 | 481 | 454 | 434 | 369 | 431 | 488
23 | O=c1cc(CN2CCOCC2)occ1OCCCCCSc1ccnc2cc(C(F)(F)F)ccc12 [EHT 1864] | 456 | 468 | 481 | 490 | 375 | 477 | 490 | 454 | 371 | 475 | 488
24 | Cc1sc2c(c1C)C(c1ccc(Cl)cc1)=N[C@@H](CC(=O)Nc1ccc(O)cc1)c1nnc(C)n1-2 [Birabresib] | 318 | 473 | 410 | 482 | 390 | 461 | 399 | 395 | 358 | 354 | 478
25 | Cc1c(C(=O)Nc2ccc(N3C[C@@H](C)O[C@@H](C)C3)nc2)cccc1-c1ccc(OC(F)(F)F)cc1 [Sonidegib] | 470 | 477 | 485 | > 500 | 409 | 477 | 469 | 466 | 477 | 470 | 465
26 | CNC(=O)c1cc(Oc2ccc(NC(=O)Nc3ccc(Cl)c(C(F)(F)F)c3)cc2)ccn1 [Sorafenib] | 440 | 453 | 454 | 458 | 443 | 448 | 452 | 437 | 448 | 431 | 459
27 | CC(C)C[C@H](NC(=O)CNC(=O)c1cc(Cl)ccc1Cl)B(O)O [Ixazomib] | 264 | 287 | 282 | 282 | 246 | 278 | 321 | 247 | 256 | 261 | 294
28 | O=C(CCCCCCC(=O)Nc1ccccc1)NO [Vorinostat] | 400 | 452 | 428 | 440 | 404 | 437 | 421 | 406 | 379 | 408 | 435
29 | S=P(N1CC1)(N1CC1)N1CC1 [ThioTEPA] | 433 | 478 | 483 | 472 | 394 | 488 | 474 | 443 | 400 | 440 | 461
